From patent US20090137499A1, “BENZYLPHENYL GLUCOPYRANOSIDE DERIVATIVE” (priority 2006, published 2009)

Target: T1, human SGLT2 (Homo sapiens, UniProt P31639)
T1 construct: expressed in transfected cells
T1 sequence (P31639 1-672): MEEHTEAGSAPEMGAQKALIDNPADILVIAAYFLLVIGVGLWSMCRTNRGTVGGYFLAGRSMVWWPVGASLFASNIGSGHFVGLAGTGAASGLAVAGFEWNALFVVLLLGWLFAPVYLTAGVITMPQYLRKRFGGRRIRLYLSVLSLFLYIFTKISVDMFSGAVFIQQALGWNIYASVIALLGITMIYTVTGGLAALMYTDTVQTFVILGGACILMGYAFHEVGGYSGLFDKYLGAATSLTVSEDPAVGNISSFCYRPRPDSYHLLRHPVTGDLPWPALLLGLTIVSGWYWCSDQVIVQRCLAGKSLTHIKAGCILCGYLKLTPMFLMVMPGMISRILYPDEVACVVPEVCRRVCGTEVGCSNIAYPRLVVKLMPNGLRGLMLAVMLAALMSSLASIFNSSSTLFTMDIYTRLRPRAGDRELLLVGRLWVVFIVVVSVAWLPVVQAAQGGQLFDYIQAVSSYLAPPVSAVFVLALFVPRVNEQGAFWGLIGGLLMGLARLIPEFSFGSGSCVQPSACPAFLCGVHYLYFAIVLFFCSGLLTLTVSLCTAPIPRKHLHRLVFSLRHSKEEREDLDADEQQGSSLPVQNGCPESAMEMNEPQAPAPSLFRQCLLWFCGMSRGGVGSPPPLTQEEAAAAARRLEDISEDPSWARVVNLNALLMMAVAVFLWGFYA
Experiment: Determination of SGLT2 inhibiting activity using human SGLT2 expressing cell ([14C]-α-methyl-D-glucopyranoside uptake)
Format: cell-based
Details: HEK-SGLT2 cells, 1 mM [14C]-α-methyl-D-glucopyranoside, 37° C., 30 min
Description: Determination of SGLT2 Inhibiting Activity Using Human SGLT2 Expressing Cell
1) Preparation of Vector Expressing Human SGLT2 cDNA in Animal Cell
Amplification was performed by PCR using human SGLT2 cDNA clone (Origene: Clone Number, TC303267; GenBank accession number, NM 003041) as a template. The sense oligonucleotide primer for PCR was 5′-[…]-3′ (Primer 3: SEQ ID NO: 3 in the sequence listing),
and the antisense oligonucleotide primer was 5′-[…]-3′ (Primer 4: SEQ ID NO: 4 in the sequence listing). The PCR product was subjected to agarose electrophoresis, then a target DNA fragment was recovered from a single band corresponding to 2037 bases, digested with restriction enzymes HindIII and XhoI, and introduced into the HindIII/XhoI site of vector pCMV-Script (Stratagene) to obtain SGLT2 expressing plasmid pCMV-SGLT2. A HindIII/XhoI fragment was excised from pCMV-SGLT2 and introduced into the BamHI/XhoI site of pENTR1A (Gateway, Invitrogen) to prepare pENTR-SGLT2. Retrovirus vector pLPCX (Clontech) into which Gateway Vector Conversion System Cassette A (Invitrogen) was introduced was used as the destination plasmid to prepare SGLT2 expressing retrovirus vector pLPCX-SGLT2.
2) Establishment of Human SGLT2 Expressing Cell
The retrovirus pLPCX-SGLT2 obtained in 1) was transfected into integrin αvβ3 expressing HEK-293 cells, the cells were treated with antibiotic G418 (brand name, Geneticin: Invitrogen) and puromycin (Clontech) to obtain HEK-SGLT2 cells stably expressing the target vector having resistance. The stably expressing cells were cultured and maintained in DMEM medium containing […] G418, […] puromycin, 3 mM KGT-1075, and 10% FBS.
3) Determination of SGLT2 Inhibiting Activity
HEK-SGLT2 cells were suspended at a density of 10^6 cells/mL in DMEM medium containing 250 mg/mil G418, 1 mg/ml puromycin, and 10% FBS, and 100 μL was seeded in each well of a type 1 collagen-coated 96-well culture plate (Corning). On the following day, the medium was replaced with a sugar uptake buffer (10 mM HEPES [pH 7.5], 5 mM Tris-HCl [pH 7.5], 140 mM NaCl, 2 mM KCl, 1 mM CaCl2, 1 mM MgCl2), and the cells were cultured with 1 mM [^14C]-α-methyl-D-glucopyranoside (0.1 mCi) and a test compound at 37° C. for 30 min, and then washed 3 times with a washing buffer (10 mM HEPES (pH 7.5), 5 mM Tris-HCl (pH 7.5), 140 mM choline chloride, 2 mM KCl, 1 mM CaCl2, 1 mM MgCl2). 100 μL of liquid scintillation cocktail (brand name, Supermix: Perkin-Elmer) was added to each well of the 96-well plate and stirred for 10 min, and then radioactivity was determined with micro β (Perkin-Elmer), a type of liquid scintillation counter. The value obtained by deducting the radioactivity in the presence of an excess amount of an SGLT2 inhibiting compound as the background from each measured value was taken as the sugar uptake activity, the inhibition rate (%) was calculated from the control sugar uptake activity obtained without using a test compound and the sugar uptake activity obtained using a test compound having a predetermined concentration, and the concentrations of the test compound at which the sugar uptake activity was inhibited by 50% were assessed.

| IC50 [nM] | SMILES |
| --- | --- |
| 10 | COc1ccc(Cc2c(Cl)cc(CO)cc2O[C@@H]2O[C@](C)(CO)[C@@H](O)[C@H](O)[C@H]2O)cc1 [Example 55, 3-Chloro-5-hydroxymethyl-2-(4-methoxybenzyl)phenyl 5-C-methyl-β-D-glucopyranoside] |
| 11 | COc1ccc(Cc2c(Cl)cc(CO)cc2O[C@@H]2O[C@H](CO)[C@@](C)(O)[C@H](O)[C@H]2O)cc1 [Example 56, 3-Chloro-5-hydroxymethyl-2-(4-methoxybenzyl)phenyl 4-C-methyl-β-D-glucopyranoside] |
| 13 | COc1ccc(Cc2ccc(N)cc2O[C@@H]2O[C@H](CO)[C@@](C)(O)[C@H](O)[C@H]2O)cc1 [Example 64, 5-Amino-2-(4-methoxybenzyl)phenyl 4-C-methyl-β-D-glucopyranoside] |
| 20 | COc1ccc(Cc2ccc(N)cc2O[C@@H]2O[C@H](CO)C[C@H](O)[C@H]2O)cc1 [Example 65, 5-Amino-2-(4-methoxybenzyl)phenyl 4-deoxy-β-D-glucopyranoside] |
| 20 | COc1ccc(Cc2c(F)cc(CO)cc2O[C@@H]2O[C@H](CO)C[C@H](O)[C@H]2O)cc1 [Example 85, 3-Fluoro-5-hydroxymethyl-2-(4-methoxybenzyl)phenyl 4-deoxy-β-D-glucopyranoside] |
| 19 | COc1ccc(Cc2c(Cl)cc(CO)cc2O[C@@H]2O[C@H](CO)C[C@H](O)[C@H]2O)cc1 [Example 86, 3-Chloro-5-hydroxymethyl-2-(4-methoxybenzyl)phenyl 4-deoxy-β-D-glucopyranoside] |
| 272 | CCOc1ccc(Cc2ccc(COC(=O)CO)cc2O[C@@H]2O[C@H]([C@@H](C)O)[C@@H](O)[C@H](O)[C@H]2O)cc1 [Example 99, 5-Hydroxyacetyloxymethyl-2-(4-ethoxybenzyl)phenyl 7-deoxy-D-glycero-β-D-gluco-heptopyranoside] |
